IC50 data for 22 compounds are collected here from US11479546B2, “Antimalarial hexahydropyrimidine analogues” (UCB Biopharma SRL, priority 2018, dated 2022).

The test system of the experiment is Plasmodium falciparum 3D7. Briefly: P. falciparum 3D7 asexual blood stage assay, Assay Procedure Version 1 (SYBR green readout). In kind it is cell-based. The settings on record: 3D7, Erythrocyte, Version 1 of the assay procedure (no asterisk), 72 h incubation in infected erythrocytes, 10,000 nM to 0.51 nM. The procedure:
Asexual Blood Stage Assay
The assay used to measure the effect of test compounds on a bloodstream stage of Plasmodium falciparum 3D7 strain employs SYBR green as the readout. This is a dye that binds to double stranded deoxyribonucleic acid (DNA) with a resulting increase in fluorescence, allowing detection of P. falciparum DNA in infected erythrocytes, and thereby providing a measure of parasite growth and propagation.
P. falciparum Culture Maintenance
Erythrocytes (A+blood) were prepared for both parasite culture and assay by washing 4 times with incomplete media (15.9 g RPMI 1640 (25 mM HEPES, L-glutamine), 1 g NaHCO3, 2 g glucose, 400 μL gentacin (500 mg/mL), 2 mL hypoxanthine solution (13.6 g/L in 0.1M NaOH pH 7.3) in 1 litre of media). The cells were centrifuged at 1800 g for 5 minutes, before decanting the supernatant and re-suspending in fresh incomplete media. On the final wash, the cells were re-suspended in complete media (incomplete media with 5 g/L AlbumaxII), and centrifuged at 1800 g for 3 minutes. This cell sediment was treated as 100% haematocrit.
P. falciparum 3D7 was cultured in erythrocytes at 5% haematocrit in complete media at 37° C. (1% O2, 3% CO2, balance N2). Cultures were split on a weekly basis to achieve a 1% parasitaemia in erythrocites at 5% haematocrit in fresh media. Culture media is replaced by fresh media every other day (2 times during the week).
Assay Procedure—Version 1
On day 1, test compounds were added to assay plates using Echo dispensing technology (3 fold dilution and 10 points titration). 50 nL of each compound dilution was added to 50 μL of culture (5% haematocrit, 0.5% parasitaemia) and incubated for 72 h at 37° C. (1% O2, 3% CO2, balance N2). Final concentrations of test compounds ranged from 10,000 nM to 0.51 nM, in […].
On day 4, 10 μL SYBR green (Invitrogen S7563 supplied as 10,000×concentrate in DMSO) pre-diluted to 3× concentrate with Lysis buffer (20 mM Tris pH 7.9, 5% EDTA, 0.16% w/v, 1.6% TX100 v/v) was added to the cultures and incubated in the dark, overnight, at room temperature.
On day 5, fluorescent signal was measured using a BioTek plate reader (excitation 485 nm, emission 528 nm). All data were processed using IDBS ActivityBase. Raw data were converted into percent inhibition through linear regression by setting the high inhibition control as 100% and the no inhibition control as 0%. Quality control criteria for passing plates were as follows: Z′>0.5, S:B>3, % CV(no inhibition control)<15. The formula used to calculate Z′ is
All EC50 curve fitting was undertaken using the following 4 parametric equation:
[formula] where A=% inhibition at bottom; B=% inhibition at top; C=EC50; D=slope; x=inhibitor concentration; and y=% inhibition. […] Assay Procedure—Version 2
Regarding `Cc1ncc(Nc2cccc([C@]3(C)CC(=O)N(C4CCOCC4)C(=N)N3)c2Cl)cn1` [Example 19, (6S)-6-{2-Chloro-3-[(2-methyl-pyrimidin-5-yl)amino]phenyl}-2-imino-6-methyl-3-(tetrahydro-pyran-4-yl)hexahydropyrimidin-4-one], the 50% inhibitory concentration (IC50) – broadly, the concentration that inhibits the measured activity by half – is 996 nM. Then `C[C@@]1(c2cccc(Nc3ccc(F)cc3)c2Cl)CC(=O)N([C@@H]2CCOC2)C(=N)N1` (relative stereo) [Example 169, (6S)-6-[2-Chloro-3-(4-fluoro-anilino)phenyl]-2-imino-6-methyl-3-[(3R*)-tetrahydro-furan-3-yl]hexahydropyrimidin-4-one], with 323 nM; and `Cc1cc(Nc2cccc([C@]3(C)CC(=O)N(C4CCOCC4)C(=N)N3)c2Cl)ccc1F` [Example 10, (6S)-6-[2-Chloro-3-(4-fluoro-3-methylanilino)phenyl]-2-imino-6-methyl-3-(tetrahydropyran-4-yl)hexahydropyrimidin-4-one], with 690 nM; and `C[C@@]1(c2cccc(Nc3ccccc3)c2Cl)CC(=O)N(CC2CCOCC2)C(=N)N1` [Example 3, (6S)-6-(3-Anilino-2-chloro-phenyl)-2-imino-6-methyl-3-(tetrahydropyran-4-ylmethyl)-hexahydropyrimidin-4-one], with 80 nM.

On to `C[C@@]1(c2cccc(Nc3ccc(OC(F)F)cc3)c2Cl)CC(=O)N(C2CCOCC2)C(=N)N1` [Example 37, (6S)-6-{2-Chloro-3-[4-(difluoro-methoxy)anilino]phenyl}-2-imino-6-methyl-3-(tetrahydro-pyran-4-yl)hexahydropyrimidin-4-one], for which half-maximal inhibition (IC50) required 1150 nM.

Consider `C[C@@]1(c2cccc(Nc3cn4ccccc4n3)c2Cl)CC(=O)N(C2CCOCC2)C(=N)N1` [Example 35, (6S)-6-[2-Chloro-3-(imidazo-[1,2-a]pyridin-2-ylamino)-phenyl]-2-imino-6-methyl-3-(tetrahydropyran-4-yl)-hexahydropyrimidin-4-one], for which the IC50 was found to be 2380 nM.

Turning to `C[C@@]1(c2cccc(Nc3ccccc3C(F)(F)F)c2Cl)CC(=O)N(C2CCOCC2)C(=N)N1` [Example 16, (6S)-6-{2-Chloro-3-[2-(trifluoromethyl)anilino]-phenyl}-2-imino-6-methyl-3-(tetrahydropyran-4-yl)-hexahydropyrimidin-4-one], half-maximal inhibition (IC50) was put at 2290 nM. Then `C[C@@]1(c2cccc(Nc3ccc(F)cc3)c2Cl)CC(=O)N(C2CCOCC2)C(=N)N1` [Example 12, (6S)-6-[2-Chloro-3-(4-fluoro-anilino)phenyl]-2-imino-6-methyl-3-(tetrahydropyran-4-yl)hexahydropyrimidin-4-one], with 200 nM; and `C[C@@]1(c2cccc(Nc3cccc(S(C)(=O)=O)c3)c2Cl)CC(=O)N(C2CCOCC2)C(=N)N1` [Example 41, (6S)-6-[2-Chloro-3-(3-methyl-sulfonylanilino)phenyl]-2-imino-6-methyl-3-(tetrahydro-pyran-4-yl)hexahydropyrimidin-4-one], with 1950 nM. Then `C[C@@]1(c2cccc(Nc3cccnc3)c2Cl)CC(=O)N(C2CCOCC2)C(=N)N1` [Example 20, (6S)-6-[2-Chloro-3-(pyridin-3-ylamino)phenyl]-2-imino-6-methyl-3-(tetrahydropyran-4-yl)hexahydropyrimidin-4-one], with 2310 nM.

Take `COc1ccc(Nc2cccc([C@]3(C)CC(=O)N(C4CCOCC4)C(=N)N3)c2Cl)cc1OC` [Example 164, (6S)-6-[2-Chloro-3-(3,4-dimethoxyanilino)phenyl]-2-imino-6-methyl-3-(tetrahydro-pyran-4-yl)hexahydropyrimidin-4-one]: the IC50 came out at 2200 nM.

Compound `C[C@@]1(c2cccc(Nc3cc(OC(F)(F)F)ccc3F)c2Cl)CC(=O)N(C2CCOCC2)C(=N)N1` [Example 22, (6S)-6-{2-Chloro-3-[2-fluoro-5-(trifluoromethoxy)anilino]-phenyl}-2-imino-6-methyl-3-(tetrahydropyran-4-yl)-hexahydropyrimidin-4-one] registered an IC50 of 1520 nM. Then `C[C@@]1(c2cccc(Nc3ccccc3)c2Cl)CC(=O)N([C@H]2C[C@@](C)(O)C2)C(=N)N1` [Example 13, (6S)-6-(3-Anilino-2-chloro-phenyl)-3-(3-hydroxy-3-methyl-cyclobutyl)-2-imino-6-methyl-hexahydropyrimidin-4-one], with 230 nM; and `Cc1ccc(Nc2c(F)ccc([C@]3(C)CC(=O)N(C4CCOCC4)C(=N)N3)c2Cl)cn1` [Example 207, (6S)-6-{2-Chloro-4-fluoro-3-[(6-methylpyridin-3-yl)amino]phenyl}-2-imino-6-methyl-3-(tetrahydropyran-4-yl)hexahydropyrimidin-4-one], with 659 nM. Then `Cc1ccccc1Nc1cccc([C@]2(C)CC(=O)N(C3CCOCC3)C(=N)N2)c1Cl` [Example 165, (6S)-6-[2-Chloro-3-(2-methyl-anilino)phenyl]-2-imino-6-methyl-3-(tetrahydropyran-4-yl)hexahydropyrimidin-4-one], with 890 nM.

`C[C@@]1(c2cccc(Nc3ccc(S(C)(=O)=O)cc3)c2Cl)CC(=O)N(C2CCOCC2)C(=N)N1` [Example 39, (6S)-6-[2-Chloro-3-(4-methyl-sulfonylanilino)phenyl]-2-imino-6-methyl-3-(tetrahydro-pyran-4-yl)hexahydropyrimidin-4-one] displayed an IC50 of 2090 nM.

Consider `C[C@@]1(c2cccc(Nc3cc(Cl)cc(C#N)c3)c2Cl)CC(=O)N(C2CCOCC2)C(=N)N1` [Example 34, 3-Chloro-5-{2-chloro-3-[(4S)-2-imino-4-methyl-6-oxo-1-(tetrahydropyran-4-yl)-hexahydropyrimidin-4-yl]-anilino}benzonitrile], for which the concentration for half-maximal inhibition (IC50) came out at 790 nM. As to `C[C@@]1(c2cccc(Nc3ccccc3)c2Cl)CC(=O)N([C@H]2CCOC2)C(=N)N1` (relative stereo) [Example 5, (6S)-6-(3-Anilino-2-chloro-phenyl)-2-imino-6-methyl-3-[(3S or 3R*)-tetrahydrofuran-3-yl]hexahydropyrimidin-4-one], the IC50 turned out to be 120 nM.

Compound `C[C@@]1(c2cccc(Nc3cnc4ccccc4c3)c2Cl)CC(=O)N(C2CCOCC2)C(=N)N1` [Example 30, (6S)-6-[2-Chloro-3-(quinolin-3-ylamino)phenyl]-2-imino-6-methyl-3-(tetrahydropyran-4-yl)hexahydropyrimidin-4-one] returned an IC50 of 640 nM. In the case of `C[C@@]1(c2cccc(Nc3ccc(F)cc3)c2Cl)CC(=O)N(CC2CCOCC2)C(=N)N1` (single isomer, unassigned) [Example 170, (6S*)-6-[2-Chloro-3-(4-fluoro-anilino)phenyl]-2-imino-6-methyl-3-(tetrahydropyran-4-ylmethyl)hexahydropyrimidin-4-one] it was 492 nM; in that of `Cc1ccc(Nc2cccc([C@]3(C)CC(=O)N(C4CCOCC4)C(=N)N3)c2Cl)cc1` [Example 160, (6S)-6-[2-Chloro-3-(4-methyl-anilino)phenyl]-2-imino-6-methyl-3-(tetrahydropyran-4-yl)hexahydropyrimidin-4-one], 1680 nM.

With `COc1ccc(Nc2cccc([C@]3(C)CC(=O)N(C4CCOCC4)C(=N)N3)c2Cl)cc1` [Example 159, (6S)-6-[2-Chloro-3-(4-methoxy-anilino)phenyl]-2-imino-6-methyl-3-(tetrahydropyran-4-yl)hexahydropyrimidin-4-one], the midpoint of inhibition, the IC50, lay at 2280 nM.
